Tests used:
ABL2 (human) = ABL2 (human) (UniProt P42684); experiment: Caliper, Mobility shift assay off-chip
PDGFRA (human) = PDGFRA (human) (UniProt P16234); experiment: Caliper, Mobility shift assay off-chip
PRKAA2 (human) = PRKAA2 (human) (UniProt P54646); experiment: Caliper, Mobility shift assay off-chip
BRAF (human) = BRAF (human) (UniProt P15056); experiment: ELISA
RAF1 (human) = RAF1 (human) (UniProt P04049); experiment: ELISA
AURKA (human) = AURKA (human) (UniProt O14965); experiment: Caliper, Mobility shift assay off-chip
CSF1R (human) = CSF1R (human) (UniProt P07333); experiment: Caliper, Mobility shift assay off-chip
DDR1 (human) = DDR1 (human) (UniProt Q08345); experiment: Caliper, Mobility shift assay off-chip
DDR2 (human) = DDR2 (human) (UniProt Q16832); experiment: Caliper, Mobility shift assay off-chip
EPHA6 (human) = EPHA6 (human) (UniProt Q9UF33); experiment: Caliper, Mobility shift assay off-chip
HIPK4 (human) = HIPK4 (human) (UniProt Q8NE63); experiment: Caliper, Mobility shift assay off-chip
MAPK14 (human) = MAPK14 (human) (UniProt Q16539); experiment: Caliper, Mobility shift assay off-chip
MUSK (human) = MUSK (human) (UniProt O15146); experiment: Caliper, Mobility shift assay off-chip
PDGFRB (human) = PDGFRB (human) (UniProt P09619); experiment: Caliper, Mobility shift assay off-chip
PRKAA1 (human) = PRKAA1 (human) (UniProt Q13131); experiment: Caliper, Mobility shift assay off-chip
MAP2K3 (human) = MAP2K3 (human) (UniProt P46734); experiment: ELISA
MAP2K6 (human) = MAP2K6 (human) (UniProt P52564); experiment: ELISA
FGFR2 (human) = FGFR2 (human) (UniProt P21802); experiment: Caliper, Mobility shift assay off-chip
Chain of FGFR2 (human) (P21802 whole entry, looked up): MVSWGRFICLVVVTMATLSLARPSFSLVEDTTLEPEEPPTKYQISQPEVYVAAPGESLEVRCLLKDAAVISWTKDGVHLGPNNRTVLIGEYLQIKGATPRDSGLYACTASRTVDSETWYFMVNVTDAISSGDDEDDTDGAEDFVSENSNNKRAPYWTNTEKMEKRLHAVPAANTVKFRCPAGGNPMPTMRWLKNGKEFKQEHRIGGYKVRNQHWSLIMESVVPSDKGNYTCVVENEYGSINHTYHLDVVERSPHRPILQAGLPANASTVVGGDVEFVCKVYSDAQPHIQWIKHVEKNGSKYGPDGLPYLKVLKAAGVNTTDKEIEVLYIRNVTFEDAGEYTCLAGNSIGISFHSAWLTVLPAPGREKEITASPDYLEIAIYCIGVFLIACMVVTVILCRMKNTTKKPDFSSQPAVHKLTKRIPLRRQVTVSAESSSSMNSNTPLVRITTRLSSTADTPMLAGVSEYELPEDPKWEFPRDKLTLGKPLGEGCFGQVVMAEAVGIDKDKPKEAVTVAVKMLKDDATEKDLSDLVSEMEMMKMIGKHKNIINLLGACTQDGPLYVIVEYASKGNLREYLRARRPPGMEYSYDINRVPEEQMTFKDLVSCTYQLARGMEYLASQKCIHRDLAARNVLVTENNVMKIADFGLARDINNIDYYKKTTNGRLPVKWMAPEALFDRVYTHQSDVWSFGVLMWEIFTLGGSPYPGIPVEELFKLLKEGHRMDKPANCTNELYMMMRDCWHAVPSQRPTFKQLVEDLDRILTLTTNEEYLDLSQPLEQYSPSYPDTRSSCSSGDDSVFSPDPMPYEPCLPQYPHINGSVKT

Chain of ABL2 (human) (P42684 whole entry, looked up): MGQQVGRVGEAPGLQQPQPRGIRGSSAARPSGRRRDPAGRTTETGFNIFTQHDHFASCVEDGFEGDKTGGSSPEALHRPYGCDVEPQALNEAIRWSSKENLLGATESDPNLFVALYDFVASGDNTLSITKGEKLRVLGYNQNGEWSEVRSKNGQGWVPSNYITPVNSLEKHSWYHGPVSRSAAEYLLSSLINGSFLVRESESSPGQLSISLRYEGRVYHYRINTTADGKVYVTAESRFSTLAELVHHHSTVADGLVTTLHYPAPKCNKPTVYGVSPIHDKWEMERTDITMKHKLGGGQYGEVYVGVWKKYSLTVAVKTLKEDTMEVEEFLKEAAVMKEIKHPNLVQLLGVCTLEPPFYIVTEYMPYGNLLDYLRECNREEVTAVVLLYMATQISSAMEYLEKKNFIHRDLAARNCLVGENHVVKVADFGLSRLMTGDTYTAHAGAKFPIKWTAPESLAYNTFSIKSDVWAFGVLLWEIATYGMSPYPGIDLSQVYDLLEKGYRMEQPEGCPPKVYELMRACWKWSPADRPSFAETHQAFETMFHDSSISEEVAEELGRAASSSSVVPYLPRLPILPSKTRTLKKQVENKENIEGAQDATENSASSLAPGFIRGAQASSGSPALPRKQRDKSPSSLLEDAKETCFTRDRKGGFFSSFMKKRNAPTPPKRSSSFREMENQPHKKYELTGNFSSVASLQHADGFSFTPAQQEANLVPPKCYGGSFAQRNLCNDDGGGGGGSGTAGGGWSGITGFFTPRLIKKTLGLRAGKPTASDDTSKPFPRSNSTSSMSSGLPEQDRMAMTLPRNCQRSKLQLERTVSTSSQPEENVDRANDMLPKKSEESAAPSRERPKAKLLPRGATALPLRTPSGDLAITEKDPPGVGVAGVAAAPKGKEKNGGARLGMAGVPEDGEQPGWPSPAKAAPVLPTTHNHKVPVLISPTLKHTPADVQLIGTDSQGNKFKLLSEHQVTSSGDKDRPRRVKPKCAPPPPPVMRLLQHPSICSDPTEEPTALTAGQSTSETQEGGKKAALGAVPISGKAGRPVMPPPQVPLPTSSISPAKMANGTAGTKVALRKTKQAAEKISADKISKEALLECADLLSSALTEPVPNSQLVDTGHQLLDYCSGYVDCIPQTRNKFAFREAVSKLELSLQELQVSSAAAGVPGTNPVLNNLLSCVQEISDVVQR
Chain of PRKAA2 (human) (P54646 whole entry, looked up): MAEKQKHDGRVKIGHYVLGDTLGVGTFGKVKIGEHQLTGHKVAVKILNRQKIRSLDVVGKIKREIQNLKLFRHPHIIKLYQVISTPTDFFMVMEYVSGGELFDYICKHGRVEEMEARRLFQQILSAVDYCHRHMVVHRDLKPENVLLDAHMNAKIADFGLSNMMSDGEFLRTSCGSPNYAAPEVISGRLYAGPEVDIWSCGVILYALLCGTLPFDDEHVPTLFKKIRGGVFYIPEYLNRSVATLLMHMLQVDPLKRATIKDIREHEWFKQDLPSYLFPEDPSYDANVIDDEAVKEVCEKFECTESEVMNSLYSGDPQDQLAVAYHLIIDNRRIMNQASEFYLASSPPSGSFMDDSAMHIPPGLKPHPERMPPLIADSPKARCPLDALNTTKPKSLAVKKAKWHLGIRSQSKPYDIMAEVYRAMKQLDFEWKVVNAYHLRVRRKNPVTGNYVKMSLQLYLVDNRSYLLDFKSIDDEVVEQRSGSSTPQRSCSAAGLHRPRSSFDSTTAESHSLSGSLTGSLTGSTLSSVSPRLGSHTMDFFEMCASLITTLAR
Chain of PRKAA1 (human) (Q13131 whole entry, looked up): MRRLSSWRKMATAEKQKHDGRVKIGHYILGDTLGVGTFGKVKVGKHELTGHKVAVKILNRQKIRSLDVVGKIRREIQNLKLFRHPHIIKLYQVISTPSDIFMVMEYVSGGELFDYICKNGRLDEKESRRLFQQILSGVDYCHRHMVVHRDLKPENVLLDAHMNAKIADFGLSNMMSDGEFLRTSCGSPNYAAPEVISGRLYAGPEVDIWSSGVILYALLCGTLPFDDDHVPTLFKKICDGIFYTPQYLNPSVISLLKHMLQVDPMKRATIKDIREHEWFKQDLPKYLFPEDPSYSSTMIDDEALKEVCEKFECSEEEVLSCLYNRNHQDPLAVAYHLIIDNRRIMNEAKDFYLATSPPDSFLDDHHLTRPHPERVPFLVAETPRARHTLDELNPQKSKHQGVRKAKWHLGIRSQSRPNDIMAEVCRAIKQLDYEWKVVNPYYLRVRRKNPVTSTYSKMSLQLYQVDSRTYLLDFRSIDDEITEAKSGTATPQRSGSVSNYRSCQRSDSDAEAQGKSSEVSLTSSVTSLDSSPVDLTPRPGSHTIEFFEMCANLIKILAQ
Chain of MAP2K3 (human) (P46734 whole entry, looked up): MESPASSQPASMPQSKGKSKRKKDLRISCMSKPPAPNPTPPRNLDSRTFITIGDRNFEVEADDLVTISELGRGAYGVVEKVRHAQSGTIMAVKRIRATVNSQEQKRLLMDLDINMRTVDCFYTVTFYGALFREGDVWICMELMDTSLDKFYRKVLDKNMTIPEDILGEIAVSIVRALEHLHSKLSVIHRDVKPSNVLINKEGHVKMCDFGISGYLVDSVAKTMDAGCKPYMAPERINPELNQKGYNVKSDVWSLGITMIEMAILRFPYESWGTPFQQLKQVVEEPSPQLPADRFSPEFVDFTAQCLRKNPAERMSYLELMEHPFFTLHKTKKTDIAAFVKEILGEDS
Chain of HIPK4 (human) (Q8NE63 whole entry, looked up): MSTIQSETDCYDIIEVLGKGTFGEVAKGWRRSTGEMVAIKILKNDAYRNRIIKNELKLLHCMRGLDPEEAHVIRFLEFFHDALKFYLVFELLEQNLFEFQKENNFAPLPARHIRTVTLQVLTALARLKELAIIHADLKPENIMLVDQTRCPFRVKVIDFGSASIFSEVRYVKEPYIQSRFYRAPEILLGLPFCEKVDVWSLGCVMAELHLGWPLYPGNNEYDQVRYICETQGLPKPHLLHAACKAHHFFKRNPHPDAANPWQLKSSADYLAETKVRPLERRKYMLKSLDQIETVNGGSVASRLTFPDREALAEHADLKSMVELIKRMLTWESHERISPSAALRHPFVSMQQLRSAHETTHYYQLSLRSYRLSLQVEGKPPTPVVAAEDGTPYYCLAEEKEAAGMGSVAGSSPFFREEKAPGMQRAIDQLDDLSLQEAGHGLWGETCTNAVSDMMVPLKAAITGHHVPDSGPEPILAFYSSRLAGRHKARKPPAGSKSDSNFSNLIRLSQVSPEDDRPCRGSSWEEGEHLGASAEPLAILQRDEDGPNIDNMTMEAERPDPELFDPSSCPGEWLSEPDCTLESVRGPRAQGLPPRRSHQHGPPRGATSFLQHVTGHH
Chain of DDR2 (human) (Q16832 whole entry, looked up): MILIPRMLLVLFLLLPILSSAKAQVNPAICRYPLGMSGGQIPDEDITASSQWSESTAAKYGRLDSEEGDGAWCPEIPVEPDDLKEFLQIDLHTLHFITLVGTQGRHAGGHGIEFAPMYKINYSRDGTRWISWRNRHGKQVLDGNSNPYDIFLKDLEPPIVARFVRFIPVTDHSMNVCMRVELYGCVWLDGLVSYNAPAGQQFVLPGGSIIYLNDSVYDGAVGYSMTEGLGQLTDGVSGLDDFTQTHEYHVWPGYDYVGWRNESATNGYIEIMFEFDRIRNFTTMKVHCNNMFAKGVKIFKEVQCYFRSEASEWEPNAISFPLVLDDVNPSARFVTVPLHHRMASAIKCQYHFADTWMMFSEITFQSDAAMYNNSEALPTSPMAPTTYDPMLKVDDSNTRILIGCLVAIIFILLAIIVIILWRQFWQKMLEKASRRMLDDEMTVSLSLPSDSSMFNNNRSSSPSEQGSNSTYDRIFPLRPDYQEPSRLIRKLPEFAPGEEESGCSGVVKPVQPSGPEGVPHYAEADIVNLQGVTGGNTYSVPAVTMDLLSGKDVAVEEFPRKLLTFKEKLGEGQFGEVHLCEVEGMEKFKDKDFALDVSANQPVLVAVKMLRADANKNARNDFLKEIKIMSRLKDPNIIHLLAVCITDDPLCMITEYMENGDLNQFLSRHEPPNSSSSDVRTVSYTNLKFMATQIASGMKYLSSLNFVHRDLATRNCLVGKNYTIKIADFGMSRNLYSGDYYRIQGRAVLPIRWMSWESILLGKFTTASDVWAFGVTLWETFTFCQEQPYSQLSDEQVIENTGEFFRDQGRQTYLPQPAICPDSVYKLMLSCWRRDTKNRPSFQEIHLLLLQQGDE

| Ki (ABL2 (human)) [nM] | Ki (PDGFRA (human)) [nM] | Ki (PRKAA2 (human)) [nM] | Ki (BRAF (human)) [nM] | Ki (RAF1 (human)) [nM] | Ki (AURKA (human)) [nM] | Ki (CSF1R (human)) [nM] | Ki (DDR1 (human)) [nM] | Ki (DDR2 (human)) [nM] | Ki (EPHA6 (human)) [nM] | Ki (HIPK4 (human)) [nM] | Ki (MAPK14 (human)) [nM] | Ki (MUSK (human)) [nM] | Ki (PDGFRB (human)) [nM] | Ki (PRKAA1 (human)) [nM] | Ki (MAP2K3 (human)) [nM] | Ki (MAP2K6 (human)) [nM] | Ki (FGFR2 (human)) [nM] | Structure (SMILES) |
| --- | --- | --- | --- | --- | --- | --- | --- | --- | --- | --- | --- | --- | --- | --- | --- | --- | --- | --- |
| 5000 | 2.76 | 1670 | 5000 | 5000 |  |  |  |  |  |  |  |  |  |  |  |  |  | Cc1ccc(F)c(NC(=O)Nc2ccc(-c3cccc4[nH]nc(N)c34)cc2)c1 |
| 52.5 |  | 1500 |  |  | 86.5 | 45.8 | 52 | 1.95 | 3.14 | 42.9 | 266 | 291 | 1.4 | 1500 | 272 | 302 |  | COc1cc2nccc(Oc3ccc(NC(=O)Nc4cc(C)on4)c(Cl)c3)c2cc1OC |
|  |  |  |  |  |  |  |  |  |  |  |  |  |  |  |  |  | 18.1 | Cc1cc2c(F)c(Oc3ncnn4cc(OC[C@@H](C)O)c(C)c34)ccc2[nH]1 |

Reference: the kinase profiling compilation of Christmann-Franck et al. (2016)
